Species on record: Rattus norvegicus
Assay: Open TG-GATES - Regimen: Daily Repeat
Type: toxicity, organism-based, Sprague-Dawley
Set-up: regimen Daily Repeat, gender Male, age 6 weeks
Conditions: in vivo, po, 500 mg/kg, […], route gavage, dose level High; for KIDNEY_L / KIDNEY_R / KIDNEY_TOTAL: tissue Kidney; for LIVER: tissue Liver; for A/G / ALP / ALT / AST / BUN / CRE / Ca / Cl / DBIL / GLC / IP / K / LDH / Na / PL / RALB / TBIL / TC / TG / TP / gamma-GTP: tissue Plasma

**Q.** Which results are given for `CN1C(=O)OC(C)(C)C1=O` [TRIMETHADIONE]?
**A.** Lym (tissue Blood, time 28 day): 68.2%; MCH (tissue Blood, time 28 day): 20.6 pg; MCHC (tissue Blood, time 28 day): 35.7%; MCV (tissue Blood, time 28 day): 57.9 fL; Mono (tissue Blood, time 28 day): 3.4%; Neu (tissue Blood, time 28 day): 27.2%; PT (tissue Blood, time 28 day): 14.5 s; Plat (tissue Blood, time 28 day): 103 x10_4/uL; RBC (tissue Blood, time 28 day): 744.8 x10_4/ul; Ret (tissue Blood, time 28 day): 2.3%; WBC (tissue Blood, time 28 day): 84.6 x10_2/uL; KIDNEY_L (time 7 day): 1.2 g; KIDNEY_R (time 7 day): 1.2 g; KIDNEY_TOTAL (time 7 day): 2.4 g; KIDNEY_L (time 14 day): 1.3 g; KIDNEY_R (time 14 day): 1.3 g; KIDNEY_TOTAL (time 14 day): 2.6 g; KIDNEY_L (time 28 day): 1.5 g; KIDNEY_R (time 28 day): 1.4 g; KIDNEY_TOTAL (time 28 day): 2.9 g; LIVER (time 7 day): 16.6 g; LIVER (time 14 day): 17.4 g; LIVER (time 28 day): 18.4 g; A/G (time 7 day): 0.8; ALP (time 7 day): 1535.2 IU/L; ALT (time 7 day): 62.6 IU/L; AST (time 7 day): 121 IU/L; BUN (time 7 day): 16 mg/dL; CRE (time 7 day): 0.2 mg/dL; Ca (time 7 day): 10.9 mg/dL; Cl (time 7 day): 97.2 meq/L; DBIL (time 7 day): 0.016 mg/dL; GLC (time 7 day): 179 mg/dL; IP (time 7 day): 7.7 mg/dL; K (time 7 day): 4 meq/L; LDH (time 7 day): 81.4 IU/L; Na (time 7 day): 146.2 meq/L; PL (time 7 day): 166.2 mg/dL; RALB (time 7 day): 2.8 g/dL; TBIL (time 7 day): 0.042 mg/dL; TC (time 7 day): 85 mg/dL; TG (time 7 day): 96.8 mg/dL; TP (time 7 day): 6.1 g/dL; gamma-GTP (time 7 day): 1.6 IU/L; A/G (time 14 day): 0.9; ALP (time 14 day): 1426.4 IU/L; ALT (time 14 day): 57 IU/L; AST (time 14 day): 117.4 IU/L; BUN (time 14 day): 16.8 mg/dL; CRE (time 14 day): 0.2 mg/dL; Ca (time 14 day): 10.7 mg/dL; Cl (time 14 day): 100.6 meq/L; DBIL (time 14 day): 0.01 mg/dL; GLC (time 14 day): 181.6 mg/dL; IP (time 14 day): 6.7 mg/dL; K (time 14 day): 3.6 meq/L; LDH (time 14 day): 127.6 IU/L; Na (time 14 day): 146.2 meq/L; PL (time 14 day): 169.6 mg/dL; RALB (time 14 day): 3.1 g/dL; TBIL (time 14 day): 0.034 mg/dL; TC (time 14 day): 97.4 mg/dL; TG (time 14 day): 59.2 mg/dL; TP (time 14 day): 6.5 g/dL; gamma-GTP (time 14 day): 1.6 IU/L; A/G (time 28 day): 0.9; ALP (time 28 day): 1105.4 IU/L; ALT (time 28 day): 57.8 IU/L; AST (time 28 day): 141.2 IU/L; BUN (time 28 day): 15.6 mg/dL; CRE (time 28 day): 0.3 mg/dL; Ca (time 28 day): 10.4 mg/dL; Cl (time 28 day): 97.8 meq/L; DBIL (time 28 day): 0.006 mg/dL; GLC (time 28 day): 176 mg/dL; IP (time 28 day): 6.2 mg/dL; K (time 28 day): 3.6 meq/L; LDH (time 28 day): 83.2 IU/L; Na (time 28 day): 145 meq/L; PL (time 28 day): 155.2 mg/dL; RALB (time 28 day): 3.1 g/dL; TBIL (time 28 day): 0.032 mg/dL; TC (time 28 day): 83.8 mg/dL; TG (time 28 day): 122.8 mg/dL; TP (time 28 day): 6.9 g/dL; gamma-GTP (time 28 day): 1.4 IU/L
